This note sets out measurements from patent US20210221822A1, “TRICYCLIC DERIVATIVES INHIBITOR, PREPARATION METHOD, AND APPLICATIONS THEREOF” (Jiangsu Hansoh Pharmaceutical Group Co., Ltd., priority 2018, published 2021).

The target of one data set is T1, PI3Kδ (Homo sapiens, UniProt O00329).
T1 construct: purchased Carna 11-103
Nature of the data set: ADP-Glo lipid kinase assay, PI3Kδ kinase activity. The class given is biochemical. The following applies: 0.1 nM enzyme, 90 min, 100 μM ATP. The method, then: (§1) Experimental method: Promega's ADP-Glo lipid kinase assay method (Promega #V9102) was applied in this experiment. Lipid kinase PI3Kα/β/γ/δ catalyzed the generation of ADP from ATP in the presence of the substrate PIP2: 3PS and ATP. The lipid kinase activity was characterized by measuring the ADP content in the reaction, and the half inhibitory concentration IC50 of the compound on inhibiting PI3Kα/β/γ/δ kinase activity was thus obtained.
(§2) The kinase reaction was carried out in a white 384-well plate (Perkin Elmer #6007299). 2 μL of the compound solution of different concentrations diluted with ddH2O containing 1% DMSO was added to each well. 2 μL of ddH2O containing 1% DMSO was added to the positive control well. 2 μL of 0.1-2 nM PI3K kinase solution diluted with 5× kinase buffer (HEPES 250 mM, MgCl2 15 mM, NaCl 250 mM, BSA 0.05%) was added to each well. 2 μL of 5× kinase buffer was added to the negative control well. 4 μL of 50 μM substrate PIP2: 3PS (Promega #V1701) formulated with 10× Dilution buffer and ddH2O was added to all wells. Finally, 2 μL of […] ATP solution diluted with water was added to start the reaction. After the reaction was carried out at room temperature for 90 to 120 minutes, 10 μL of ADP-Glo Reagent (containing 10 mM MgCl2) was added to each well, and reacted at room temperature for 60 minutes to remove excess ATP in the reaction. 20 μL of Kinase Detection Reagent was added to each well, and reacted at room temperature in the dark for 20 minutes. The chemiluminescence value was measured by the BioTek Synergy H1 microplate reader.
(§3) The percentage inhibition data of the compound-treated well was calculated through the positive control well (DMSO control well) and negative control well (no kinase added) on the plate {% inhibition rate=100−[(test compound value−negative control value)]/(positive control value−negative control value)×100}. The IC50 value was calculated by fitting the data of different concentrations and corresponding percentage inhibition rates to a four-parameter nonlinear logic formula with GraphPad prism.
(In general: ADP-Glo turns the ADP formed in a reaction into a luminescent signal.)

The next data set concerns the target T2, PI3Kγ (Homo sapiens, UniProt P48736).
T2 construct: purchased Thermofisher PV4786
Nature of the data set: ADP-Glo lipid kinase assay, PI3Kγ kinase activity. The class given is biochemical. As to conditions: 0.4 nM enzyme, 120 min, 50 μM ATP. The protocol: as §1, §2, §3

Data set [1] is described as follows: Pharmacokinetic (PK) assay in mice. As to conditions: male, Balb/c, mouse, plasma, po, single intragastric 5 mg/kg; for AUC(0-t): read-out: Area under curve AUC0-t; for AUC(0-inf): read-out: Area under curve AUC0-∞; for half-life: read-out: Half-life t1/2(h) (converted); for MRT: read-out: Mean residence time MRT; for Tmax: read-out: Peak time tmax; for Cmax: read-out: Plasma concentration Cmax. The class given is in vivo. The method, then:
The pharmacokinetic assay of the preferred compounds of the examples of the present invention in mice was carried out in Balb/c male mice (Shanghai Jiesijie Laboratory Animal Co., LTD). • Administration mode: single intragastric administration. • Administration dose: 5 mg/10 ml/kg (body weight). • Formulation: the compound was dissolved in 0.5% CMC-Na by ultrasound to obtain a clear solution or homogeneous suspension. • Sampling points: 0.5, 1, 2, 4, 6, 8 and 24 hours after administration. • Sample process: • 1) 0.1 mL of blood was taken from the orbit, placed in a K2-EDTA tube, and centrifuged for 5 to 20 minutes at room temperature at 1000 to 3000×g to separate the plasma, which was then stored at −80° C. • 2) 160 uL of acetonitrile was added to 40 uL of plasma sample for precipitation, and then the mixture was centrifuged for 5 to 20 minutes at 500 to 2000×g. • 3) 100 uL of processed supernatant was taken and analyzed by LC/MS/MS assay to determine the concentration of the test compound. • LC-MS/MS assay: • Liquid chromatography condition: Shimadzu LC-20AD pump • Mass spectrometry condition: AB Sciex API 4000 mass spectrometer • Chromatographic column: phenomenex Gemiu 5 μm C18 50×4.6 mm • Mobile phase: solution A was 0.1% aqueous formic acid solution, and solution B was acetonitrile • Flow rate: 0.8 mL/min • Elution time: 0-4 minutes gradient elution • Pharmacokinetics: […]
The main parameters were calculated using WinNonlin 6.1.

The target in a further data set is T3, PI3Kα (Homo sapiens, UniProt P42336).
T3 construct: purchased Promega V1721
Kind of data set: ADP-Glo lipid kinase assay, PI3Kα kinase activity. As to conditions: for IC50: ADP-Glo, 0.1 nM enzyme, 120 min, 50 μM ATP; for Selectivity of PI3Kα vs PI3Kβ: ratio of IC50 PI3Kβ to IC50 PI3Kα; for Selectivity of PI3Kα vs PI3Kγ: ratio of IC50 PI3Kγ to IC50 PI3Kα; for Selectivity of PI3Kα vs PI3Kδ: ratio of IC50 PI3Kδ to IC50 PI3Kα. The class given is biochemical. The protocol: as §1, §2, §3

A further data set has as its target T4, PI3Kβ (Homo sapiens, UniProt P42338).
T4 construct: purchased Carna 11-102
Kind of data set: ADP-Glo lipid kinase assay, PI3Kβ kinase activity. The format is biochemical. The following applies: 0.4 nM enzyme, 90 min, 100 μM ATP. The protocol:
as §1, §2, §3

T1 sequence (O00329 whole entry): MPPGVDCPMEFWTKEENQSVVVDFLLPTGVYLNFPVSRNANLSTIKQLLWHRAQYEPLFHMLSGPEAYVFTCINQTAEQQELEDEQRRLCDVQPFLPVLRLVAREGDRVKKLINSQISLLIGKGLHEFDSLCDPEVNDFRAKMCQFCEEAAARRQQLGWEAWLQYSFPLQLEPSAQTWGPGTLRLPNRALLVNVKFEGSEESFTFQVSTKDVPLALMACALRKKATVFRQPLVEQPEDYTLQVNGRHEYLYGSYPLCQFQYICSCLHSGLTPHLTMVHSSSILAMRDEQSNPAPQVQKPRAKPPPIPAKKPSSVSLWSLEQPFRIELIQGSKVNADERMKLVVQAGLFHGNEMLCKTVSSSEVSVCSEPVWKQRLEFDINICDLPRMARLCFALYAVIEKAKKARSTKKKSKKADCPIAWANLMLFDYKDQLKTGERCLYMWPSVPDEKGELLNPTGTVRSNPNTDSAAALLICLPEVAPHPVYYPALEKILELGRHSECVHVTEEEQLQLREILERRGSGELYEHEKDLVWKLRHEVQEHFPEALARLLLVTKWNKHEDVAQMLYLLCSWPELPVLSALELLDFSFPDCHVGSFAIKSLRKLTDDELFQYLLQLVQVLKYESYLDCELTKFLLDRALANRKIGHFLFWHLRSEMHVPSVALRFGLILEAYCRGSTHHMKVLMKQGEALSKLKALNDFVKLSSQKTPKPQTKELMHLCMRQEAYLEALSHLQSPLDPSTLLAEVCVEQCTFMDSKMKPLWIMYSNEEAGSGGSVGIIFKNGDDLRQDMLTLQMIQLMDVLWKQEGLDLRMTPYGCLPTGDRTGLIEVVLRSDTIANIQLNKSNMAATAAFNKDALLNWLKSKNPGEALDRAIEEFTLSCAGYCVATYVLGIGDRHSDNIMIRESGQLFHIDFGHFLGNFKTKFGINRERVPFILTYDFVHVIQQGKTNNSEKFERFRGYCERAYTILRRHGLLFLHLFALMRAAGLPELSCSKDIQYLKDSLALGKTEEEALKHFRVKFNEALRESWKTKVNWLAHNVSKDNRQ
T1 sequence (P27986 whole entry partner): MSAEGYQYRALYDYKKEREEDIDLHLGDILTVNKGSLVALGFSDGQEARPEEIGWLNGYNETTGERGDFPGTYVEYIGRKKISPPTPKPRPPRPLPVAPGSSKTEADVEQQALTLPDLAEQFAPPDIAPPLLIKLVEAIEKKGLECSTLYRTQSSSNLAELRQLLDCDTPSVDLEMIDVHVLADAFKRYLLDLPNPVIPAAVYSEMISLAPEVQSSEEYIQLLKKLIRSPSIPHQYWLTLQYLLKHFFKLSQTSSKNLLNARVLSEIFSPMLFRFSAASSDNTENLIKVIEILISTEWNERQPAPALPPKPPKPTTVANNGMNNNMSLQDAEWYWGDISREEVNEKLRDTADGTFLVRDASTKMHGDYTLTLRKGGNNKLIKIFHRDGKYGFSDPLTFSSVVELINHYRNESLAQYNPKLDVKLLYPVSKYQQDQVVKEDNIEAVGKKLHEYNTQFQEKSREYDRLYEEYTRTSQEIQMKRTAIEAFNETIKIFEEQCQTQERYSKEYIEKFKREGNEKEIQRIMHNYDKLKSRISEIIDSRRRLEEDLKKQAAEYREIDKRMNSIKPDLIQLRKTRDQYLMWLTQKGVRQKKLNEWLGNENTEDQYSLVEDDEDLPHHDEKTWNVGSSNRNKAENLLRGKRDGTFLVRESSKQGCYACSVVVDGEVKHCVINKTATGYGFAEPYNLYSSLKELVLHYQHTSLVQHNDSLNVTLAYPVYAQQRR
T2 sequence (P48736 whole entry): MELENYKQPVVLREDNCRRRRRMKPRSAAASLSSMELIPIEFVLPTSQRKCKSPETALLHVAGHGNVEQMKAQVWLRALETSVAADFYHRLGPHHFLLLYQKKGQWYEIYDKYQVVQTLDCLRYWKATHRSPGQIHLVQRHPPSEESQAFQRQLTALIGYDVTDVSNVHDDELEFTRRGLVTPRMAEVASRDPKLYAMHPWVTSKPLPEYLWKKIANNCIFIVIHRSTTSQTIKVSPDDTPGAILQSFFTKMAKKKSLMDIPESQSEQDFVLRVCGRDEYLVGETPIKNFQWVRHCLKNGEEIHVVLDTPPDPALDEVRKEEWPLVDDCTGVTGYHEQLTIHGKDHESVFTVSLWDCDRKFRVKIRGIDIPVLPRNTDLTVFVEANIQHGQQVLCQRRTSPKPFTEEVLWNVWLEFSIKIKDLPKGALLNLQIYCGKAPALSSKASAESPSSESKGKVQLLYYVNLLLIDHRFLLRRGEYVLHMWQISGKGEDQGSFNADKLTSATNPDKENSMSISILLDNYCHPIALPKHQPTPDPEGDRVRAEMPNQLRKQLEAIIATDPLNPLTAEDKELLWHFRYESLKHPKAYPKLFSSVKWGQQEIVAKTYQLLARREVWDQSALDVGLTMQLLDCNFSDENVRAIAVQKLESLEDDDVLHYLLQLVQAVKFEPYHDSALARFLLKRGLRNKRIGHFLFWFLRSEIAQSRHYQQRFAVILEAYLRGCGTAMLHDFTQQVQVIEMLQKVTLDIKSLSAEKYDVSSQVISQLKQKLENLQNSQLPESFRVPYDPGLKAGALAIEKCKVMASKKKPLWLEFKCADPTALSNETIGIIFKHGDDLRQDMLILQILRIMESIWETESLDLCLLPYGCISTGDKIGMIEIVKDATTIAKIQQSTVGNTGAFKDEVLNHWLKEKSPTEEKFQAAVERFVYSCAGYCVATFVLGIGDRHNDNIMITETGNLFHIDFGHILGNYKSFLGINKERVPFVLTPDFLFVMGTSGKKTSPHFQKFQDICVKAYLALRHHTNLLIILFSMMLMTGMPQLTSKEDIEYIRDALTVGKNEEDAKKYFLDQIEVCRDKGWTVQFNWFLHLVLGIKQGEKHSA
T4 sequence (P42338 whole entry): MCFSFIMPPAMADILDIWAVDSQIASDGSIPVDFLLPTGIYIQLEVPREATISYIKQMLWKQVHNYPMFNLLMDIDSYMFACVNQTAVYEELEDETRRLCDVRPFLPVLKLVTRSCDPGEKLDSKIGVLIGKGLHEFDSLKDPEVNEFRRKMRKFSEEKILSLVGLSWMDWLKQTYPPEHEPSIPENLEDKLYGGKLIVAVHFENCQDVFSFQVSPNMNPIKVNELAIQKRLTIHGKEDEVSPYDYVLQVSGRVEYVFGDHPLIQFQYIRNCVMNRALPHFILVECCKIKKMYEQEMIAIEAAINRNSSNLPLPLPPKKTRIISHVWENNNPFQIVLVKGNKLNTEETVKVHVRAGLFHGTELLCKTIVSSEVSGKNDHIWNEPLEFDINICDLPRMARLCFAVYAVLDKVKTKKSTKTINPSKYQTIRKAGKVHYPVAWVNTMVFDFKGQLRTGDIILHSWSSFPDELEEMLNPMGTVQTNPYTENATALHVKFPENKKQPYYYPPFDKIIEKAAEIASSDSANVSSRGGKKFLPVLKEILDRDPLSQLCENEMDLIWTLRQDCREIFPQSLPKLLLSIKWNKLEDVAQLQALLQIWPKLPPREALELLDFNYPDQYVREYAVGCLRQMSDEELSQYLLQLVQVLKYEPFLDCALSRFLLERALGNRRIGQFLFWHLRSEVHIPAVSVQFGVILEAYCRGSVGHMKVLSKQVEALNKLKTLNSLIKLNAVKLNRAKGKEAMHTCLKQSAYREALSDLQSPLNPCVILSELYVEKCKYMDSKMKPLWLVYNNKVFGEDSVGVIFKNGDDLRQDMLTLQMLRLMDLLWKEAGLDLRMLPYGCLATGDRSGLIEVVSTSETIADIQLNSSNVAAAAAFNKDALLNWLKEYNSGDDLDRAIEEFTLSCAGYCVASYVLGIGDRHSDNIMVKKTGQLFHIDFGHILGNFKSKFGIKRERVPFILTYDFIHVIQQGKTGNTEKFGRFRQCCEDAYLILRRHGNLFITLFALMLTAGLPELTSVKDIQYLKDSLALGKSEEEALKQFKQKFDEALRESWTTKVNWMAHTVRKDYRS
T4 sequence (P27986 whole entry partner): as the sequence (P27986 whole entry partner) above
T3 sequence (P42336 whole entry): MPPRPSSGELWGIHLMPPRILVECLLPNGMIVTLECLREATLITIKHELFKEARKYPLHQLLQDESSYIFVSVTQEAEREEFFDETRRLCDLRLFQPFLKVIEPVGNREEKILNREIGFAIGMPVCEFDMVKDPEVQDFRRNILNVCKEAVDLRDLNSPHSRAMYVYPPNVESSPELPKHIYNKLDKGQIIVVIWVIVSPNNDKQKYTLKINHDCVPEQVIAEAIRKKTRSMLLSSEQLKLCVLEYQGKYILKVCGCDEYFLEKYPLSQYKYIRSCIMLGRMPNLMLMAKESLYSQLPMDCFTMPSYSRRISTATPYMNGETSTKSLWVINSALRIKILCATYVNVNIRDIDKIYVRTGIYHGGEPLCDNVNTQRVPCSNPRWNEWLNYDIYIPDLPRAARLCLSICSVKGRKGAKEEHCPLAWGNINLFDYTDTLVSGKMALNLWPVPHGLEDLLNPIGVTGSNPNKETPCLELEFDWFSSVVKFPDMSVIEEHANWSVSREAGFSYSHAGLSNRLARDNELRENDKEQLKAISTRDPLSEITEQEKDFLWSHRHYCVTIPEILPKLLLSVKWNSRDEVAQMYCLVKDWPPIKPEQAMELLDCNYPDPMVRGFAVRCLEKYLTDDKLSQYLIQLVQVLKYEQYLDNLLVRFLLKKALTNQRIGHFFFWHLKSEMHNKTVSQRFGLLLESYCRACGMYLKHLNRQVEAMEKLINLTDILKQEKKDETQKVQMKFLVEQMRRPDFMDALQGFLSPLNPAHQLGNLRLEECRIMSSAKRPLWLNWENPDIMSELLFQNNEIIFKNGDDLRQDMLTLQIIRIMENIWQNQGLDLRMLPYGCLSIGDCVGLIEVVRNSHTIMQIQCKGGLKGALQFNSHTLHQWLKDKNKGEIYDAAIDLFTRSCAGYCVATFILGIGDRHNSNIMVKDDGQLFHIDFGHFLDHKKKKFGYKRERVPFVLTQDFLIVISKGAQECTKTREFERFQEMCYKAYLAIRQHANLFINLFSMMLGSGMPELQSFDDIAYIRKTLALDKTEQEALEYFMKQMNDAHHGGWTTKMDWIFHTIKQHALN
T3 sequence (P27986 whole entry partner): as the sequence (P27986 whole entry partner) above

`C[C@H](Nc1ccc2c(c1F)OCCn1cc(N3C(=O)SC[C@H]3C(F)F)nc1-2)C(N)=O` [Example 108, (S)-2-((2-((R)-4-(difluoromethyl)-2-oxothiazolidin-3-yl)-8-fluoro-5,6-dihydrobenzo[f]imidazo[1,2-d][1,4]oxazepin-9-yl)amino)propanamide]: the half-inhibitory concentration (IC50) at PI3Kδ turned out to be 194 nM. Further, at PI3Kγ, the 50% inhibitory concentration (IC50) stood at 247 nM. Also, in data set [1], the AUC(0-t) was determined as 4240 ng·h/mL, the AUC(0-inf) came to 4240 ng·h/mL, the half-life was 2 h and the mean residence time (MRT) was 3.4 h. In data set [1], the Tmax amounted to 0.5 h and the Cmax amounted to 1230 ng/mL. Further, the IC50 at PI3Kα was determined as 2.4 nM. In addition, the IC50 on PI3Kβ worked out at 472 nM.
Consider `C[C@H](Nc1cc(F)c2c(c1)OCCn1cc(N3C(=O)OC[C@H]3C(F)F)nc1-2)C(N)=O` [Example 78, (S)-2-((2-((S)-4-(difluoromethyl)-2-oxooxazolidin-3-yl)-11-fluoro-5,6-dihydrobenzo[f]imidazo[1,2-d][1,4]oxazepin-9-yl)amino)propanamide], for which the half-maximal inhibitory concentration (IC50) at PI3Kδ stood at 459 nM; at PI3Kγ, 510 nM; on PI3Kα, 5.2 nM; at PI3Kβ, 2790 nM.
With `COC[C@H](Nc1ccc2c(c1)OCCn1cc(N3C(=O)OC[C@H]3CC#N)nc1-2)C(N)=O` [Example 120, (S)-2-((2-((R)-4-(cyanomethyl)-2-oxooxazolidin-3-yl)-5,6-dihydrobenzo[f]imidazo[1,2-d][1,4]oxazepin-9-yl)amino)-3-methoxypropanamide], the IC50 on PI3Kδ worked out at 200 nM; on PI3Kγ it was 530 nM; at PI3Kα, 4.7 nM; on PI3Kβ it was 988 nM. The “Selectivity of PI3Kα vs PI3Kβ” value on PI3Kα is reported as 210. Further, the “Selectivity of PI3Kα vs PI3Kγ” value at PI3Kα worked out at 113. In addition, the “Selectivity of PI3Kα vs PI3Kδ” value on PI3Kα worked out at 43.
Turning to `C[C@@H](C(N)=O)N(C)c1ccc2c(c1)OCCn1cc(N3C(=O)SC[C@H]3C(F)F)nc1-2` [Example 112, (S)-2-((2-((R)-4-(difluoromethyl)-2-oxothiazolidin-3-yl)-5,6-dihydrobenzo[f]imidazo[1,2-d][1,4]oxazepin-9-yl)(methyl)amino)propanamide], the concentration for half-maximal inhibition (IC50) worked out at 69 nM on PI3Kδ, 478 nM at PI3Kγ, 2.2 nM on PI3Kα and 523 nM on PI3Kβ.
As for `C[C@H](Nc1ccc2c(c1)OCCn1cc(N3C(=O)CC[C@H]3CC#N)nc1-2)C(N)=O` [Example 117, (S)-2-((2-((S)-2-(cyanomethyl)-5-oxopyrrolidin-1-yl)-5,6-dihydrobenzo[f]imidazo[1,2-d][1,4]oxazepin-9-yl)amino)propanamide], the IC50 on PI3Kδ came to 280 nM. On PI3Kγ, the IC50 was determined as 505 nM. Also, at PI3Kα, the 50% inhibitory concentration (IC50) worked out at 2.5 nM, the “Selectivity of PI3Kα vs PI3Kβ” value turned out to be 779, the “Selectivity of PI3Kα vs PI3Kγ” value is recorded as 202 and the “Selectivity of PI3Kα vs PI3Kδ” value stood at 112. Also, the IC50 on PI3Kβ is 1950 nM.
Take `COC[C@H](Nc1ccc2c(c1F)OCCn1cc(N3C(=O)SC[C@H]3C(F)F)nc1-2)C(N)=O` [Example 109, (S)-2-((2-((R)-4-(difluoromethyl)-2-oxothiazolidin-3-yl)-8-fluoro-5,6-dihydrobenzo[f]imidazo[1,2-d][1,4]oxazepin-9-yl)amino)-3-methoxypropanamide]: the 50% inhibitory concentration (IC50) is 348 nM at PI3Kδ, 1150 nM at PI3Kγ, 6.8 nM at PI3Kα and 1070 nM on PI3Kβ.
On to `COC[C@H](Nc1ccc2c(c1)OCCn1cc(N3C(=O)OC[C@H]3C(F)F)nc1-2)C(N)=O` [Example 90, (S)-2-((2-((S)-4-(difluoromethyl)-2-oxooxazolidin-3-yl)-5,6-dihydrobenzo[f]imidazo[1,2-d][1,4]oxazepin-9-yl)amino)-3-methoxypropanamide], for which, in data set [1], the AUC(0-t) came to 2070 ng·h/mL, the AUC(0-inf) turned out to be 2090 ng·h/mL, the half-life is 1 h and the mean residence time MRT was 1.6 h. For the same compound, in data set [1], the Tmax was 0.5 h and the Cmax amounted to 1290 ng/mL.
As to `CC(C)[C@H](Nc1ccc2c(c1)OCCn1cc(N3C(=O)OC[C@H]3C(F)F)nc1-2)C(N)=O` [Example 38, (S)-2-((2-((S)-4-(difluoromethyl)-2-oxooxazolidin-3-yl)-5,6-dihydrobenzo[f]imidazo[1,2-d][1,4]oxazepin-9-yl)amino)-3-methylbutanamide], the IC50 at PI3Kδ amounted to 410 nM; at PI3Kγ, 447 nM; on PI3Kα, 4 nM; at PI3Kβ it was 1430 nM.
As to `C[C@H](Nc1ccc2c(c1)OCCn1c-2nc(N2C(=O)OC[C@H]2C(F)F)c1F)C(N)=O` [Example 10, (S)-2-((2-((S)-4-(difluoromethyl)-2-oxooxazolidin-3-yl)-3-fluoro-5,6-dihydrobenzo[f]imidazo[1,2-d][1,4]oxazepin-9-yl)amino)propanamide], the IC50 at PI3Kδ is 1400 nM; at PI3Kγ, 1790 nM; at PI3Kα, 7.9 nM; at PI3Kβ it was greater than 10000 nM. Further, at PI3Kα, the “Selectivity of PI3Kα vs PI3Kβ” value was greater than 1266.
On to `C[C@H](Nc1ccc2c(c1)OCCn1cc(N3C(=O)CC[C@H]3C(F)F)nc1-2)C(N)=O` [Example 97, (S)-2-((2-((S)-2-(difluoromethyl)-5-oxopyrrolidin-1-yl)-5,6-dihydrobenzo[f]imidazo[1,2-d][1,4]oxazepin-9-yl)amino)propanamide], for which the IC50 at PI3Kδ stood at 190 nM; on PI3Kγ, 510 nM; at PI3Kα, 2.1 nM; on PI3Kβ it was 1650 nM. Also, the “Selectivity of PI3Kα vs PI3Kδ” value at PI3Kα was 90.
As to `CC(Nc1ccc2c(c1)OCCn1cc(N3C(=O)OC(C)[C@H]3C(F)F)nc1-2)C(N)=O` (stereo in doubt) [Example 55, (R)-2-((2-((4S,5R)-4-(difluoromethyl)-5-methyl-2-oxooxazolidin-3-yl)-5,6-dihydrobenzo[f]imidazo[1,2-d][1,4]oxazepin-9-yl)amino)propanamide], the 50% inhibitory concentration (IC50) is 213 nM at PI3Kδ, 363 nM at PI3Kγ, 1.7 nM at PI3Kα and 1870 nM on PI3Kβ.
Take `C[C@H](Nc1ccc2c(c1)OCCn1cc(N3CC(F)(F)COC3=O)nc1-2)C(N)=O` [Example 66, (S)-2-((2-(5,5-difluoro-2-oxo-1,3-oxazinan-3-yl)-5,6-dihydrobenzo[f]imidazo[1,2-d][1,4]oxazepin-9-yl)amino)propanamide]: on PI3Kδ, the IC50 is 653 nM. Moreover, the IC50 on PI3Kγ came out at 2080 nM. Further, on PI3Kα, the concentration for half-maximal inhibition (IC50) came to 9.3 nM, the “Selectivity of PI3Kα vs PI3Kβ” value stood at 492, the “Selectivity of PI3Kα vs PI3Kγ” value was found to be 223 and the “Selectivity of PI3Kα vs PI3Kδ” value is on record as 70. On PI3Kβ, the half-maximal inhibitory concentration (IC50) turned out to be 4570 nM.

What is called IC50 is the point on the concentration scale where inhibition reaches its midpoint. One may read the MRT as the average time that molecules of a dose stay in the body. Broadly, the Tmax is the time at which the peak concentration occurs.
